In publication PMC10463303 (Veterinary Research, 2023):
Converted amounts (≈) assume the structure as drawn. Peptide text beside a SMILES is read from it.

Tests used:
Assay type in all cases: cell-based, Streptococcus suis serotype 2
Details in all cases: 18 h
[1] = test system: SS2 strains including SC19 and P1/7
Experimental: (§1) Tryptic soy broth (TSB; Beijing Land Bridge Technology Co., ltd, China) with 10% fetal bovine serum (FBS; Zhejiang Tianhang Biotechnology Co., ltd, China) were used as bacterial growth media for antimicrobial activity assays and tryptic soy agar (TSA; Beijing Land Bridge Technology Co., ltd, China) plates containing 10% FBS were used for the colony counting assay. Bacteria were cultured at 37 °C for 18 h in TSB or TSA agar plates.
(§2) Antimicrobial activity of cathelicidins was performed using a broth microdilution assay. Briefly, bacteria were maintained in TSB medium with 10% FBS at 37 °C and grown to mid-logarithmic growth phase before being tested. Then, 50 μL of peptides (0 to 80 μM) in triplicate were mixed with an equal volume of bacterial suspension (2 × 10^6 CFU/mL) in 96-well plates and incubated for 18 h at 37 ℃. The minimum inhibitory concentration (MIC) was defined as the lowest concentration of ones at which there was no visible bacteria growth. The minimum bactericidal concentration (MBC) was determined by colony counting. Fifty microliter mixed medium were removed from wells in which visible bacteria growth was not observed and then were plated out on TSA plates. After overnight culture at 37 °C, survival bacteria were counted.

[2] = test system: SS2 strain SC19
Experimental: as §1, §2

[3] = test system: SS2 strain P1/7; experiment: Antimicrobial activity assay (broth microdilution MIC, MBC by colony counting)
Experimental: as §1, §2

[4] = broth microdilution, TSB + 10% FBS, peptides 0 to 80 μM in triplicate, bacterial suspension 2 × 10^6 CFU/mL, 37 °C, no visible growth

MIC (anti-SS2 activity) [1] [µM] | Structure (SMILES) | MBC (anti-SS2 activity) [1] [µM] | MBC toward SC19 [2] [µM] | MBC toward P1/7 [3] [µM] | MIC toward SC19 [2, 4] [µM] | MIC toward P1/7 [3, 4] [µM]
> 40 | CC[C@H](C)[C@H](NC(=O)CNC(=O)[C@H](CC(N)=O)NC(=O)[C@H](CC(C)C)NC(=O)[C@H](Cc1c[nH]c2ccccc12)NC(=O)[C@H](CCC(=O)O)NC(=O)[C@H](Cc1c[nH]c2ccccc12)NC(=O)[C@@H](NC(=O)[C@H](CCCNC(=N)N)NC(=O)[C@@H](NC(=O)[C@H](Cc1c[nH]c2ccccc12)NC(=O)[C@H](Cc1c[nH]c2ccccc12)NC(=O)[C@H](CC(N)=O)NC(=O)[C@H](CCCNC(=N)N)NC(=O)[C@@H](NC(=O)[C@@H]1CCCN1)[C@@H](C)CC)[C@@H](C)CC)[C@@H](C)CC)C(=O)N[C@@H](CCCNC(=N)N)C(=O)N[C@@H](CCCCN)C(=O)N[C@@H](CCCNC(=N)N)C(=O)N[C@@H](CC(C)C)C(=O)N[C@@H](CCCNC(=N)N)C(=O)N[C@@H](CCC(N)=O)C(=O)N[C@@H](CCCNC(=N)N)C(=O)N[C@@H](CO)C(=O)N1CCC[C@H]1C(=O)N[C@@H](Cc1ccccc1)C(=O)N[C@@H](Cc1ccc(O)cc1)C(=O)N[C@H](C(=O)N[C@@H](CCCNC(=N)N)C(=O)NCC(=O)N[C@@H](Cc1c[nH]cn1)C(=O)N[C@@H](CC(C)C)C(=O)N[C@@H](CC(N)=O)C(=O)N[C@H](C(=O)N[C@H](C(=O)N[C@@H](CO)C(=O)N[C@H](C(=O)N1CCC[C@H]1C(=O)N[C@@H](CCC(N)=O)C(=O)N1CCC[C@H]1C(=O)O)[C@@H](C)O)[C@@H](C)O)C(C)C)C(C)C [CATH-B1] (H-PIRNWWIRIWEWLNGIRKRLRQRSPFYVRGHLNVTSTPQP-OH) | > 40 | > 40 | > 40 | – | –
> 40 | CC[C@H](C)[C@H](NC(=O)[C@H](CCCCN)NC(=O)[C@H](CCCCN)NC(=O)[C@H](CC(C)C)NC(=O)[C@H](CCCNC(=N)N)NC(=O)[C@H](CCCCN)NC(=O)[C@H](CCCNC(=N)N)NC(=O)[C@@H](NC(=O)[C@H](CCCCN)NC(=O)[C@H](CCCCN)NC(=O)[C@H](CCCNC(=N)N)NC(=O)[C@H](CC(C)C)NC(=O)[C@H](CCCNC(=N)N)NC(=O)[C@H](CCCNC(=N)N)NC(=O)[C@H](Cc1ccccc1)NC(=O)[C@H](CCCNC(=N)N)NC(=O)CN)[C@@H](C)O)C(=O)NCC(=O)N[C@@H](CCCCN)C(=O)N[C@H](C(=O)N[C@@H](CC(C)C)C(=O)N[C@@H](CCCCN)C(=O)N[C@@H](Cc1c[nH]c2ccccc12)C(=O)N[C@H](C(=O)N1CCC[C@H]1C(=O)N1CCC[C@H]1C(=O)N[C@H](C(=O)N[C@H](C(=O)NCC(=O)N[C@@H](CO)C(=O)N[C@H](C(=O)N1CCC[C@H]1C(=O)N[C@@H](CC(C)C)C(=O)NCC(=O)N[C@@H](CS)C(=O)NCC(=O)O)[C@@H](C)CC)C(C)C)[C@@H](C)CC)[C@@H](C)CC)C(C)C [PMAP-36] (H-GRFRRLRKKTRKRLKKIGKVLKWIPPIVGSIPLGCG-OH) | > 40 | 40 (≈ 166 µg/mL) | > 40 | – | –

Further lines, the compound ahead of its results:

Structure (SMILES) | MIC (anti-SS2 activity) [1] [µM] | MBC (anti-SS2 activity) [1] [µM] | MBC toward SC19 [2] [µM] | MBC toward P1/7 [3] [µM] | MIC toward SC19 [2, 4] [µM] | MIC toward P1/7 [3, 4] [µM]
CC[C@H](C)[C@H](NC(=O)[C@H](CCCCN)NC(=O)[C@H](CCCNC(=N)N)NC(=O)[C@H](CC(C)C)NC(=O)[C@H](Cc1ccccc1)NC(=O)[C@H](CCCNC(=N)N)NC(=O)CNC(=O)[C@H](Cc1ccccc1)NC(=O)[C@@H](N)CCCNC(=N)N)C(=O)N[C@@H](CCCNC(=N)N)C(=O)N[C@@H](CCCNC(=N)N)C(=O)N[C@@H](Cc1ccccc1)C(=O)N[C@@H](CCCNC(=N)N)C(=O)N1CCC[C@H]1C(=O)N[C@@H](CCCCN)C(=O)N[C@H](C(=O)N[C@H](C(=O)N[C@H](C(=O)N[C@H](C(=O)N[C@H](C(=O)N[C@@H](CCC(N)=O)C(=O)NCC(=O)N[C@@H](CO)C(=O)N[C@@H](C)C(=O)N[C@@H](CCCNC(=N)N)C(=O)N[C@@H](Cc1ccccc1)C(=O)O)[C@@H](C)CC)[C@@H](C)O)[C@@H](C)CC)[C@@H](C)O)C(C)C [CATH-2] (H-RFGRFLRKIRRFRPKVTITIQGSARF-OH) | 10 to 20 | 10 to 20 | 20 (≈ 64.2 µg/mL) | 10 (≈ 32.1 µg/mL) | – | –
CC[C@H](C)[C@H](NC(=O)CNC(=O)[C@H](C)NC(=O)[C@H](C)NC(=O)[C@@H](NC(=O)[C@@H](NC(=O)[C@H](CC(N)=O)NC(=O)[C@@H](NC(=O)[C@H](C)NC(=O)[C@@H](NC(=O)[C@@H]1CCCN1C(=O)[C@@H](NC(=O)[C@H](CC(C)C)NC(=O)[C@@H]1CCCN1C(=O)[C@H](Cc1c[nH]c2ccccc12)NC(=O)[C@H](Cc1ccccc1)NC(=O)[C@H](CCCNC(=N)N)NC(=O)[C@H](CCCCN)NC(=O)[C@@H](NC(=O)[C@@H](N)CCCNC(=N)N)C(C)C)C(C)C)C(C)C)[C@@H](C)CC)[C@@H](C)O)C(C)C)C(=O)N[C@@H](CC(N)=O)C(=O)N[C@@H](CC(C)C)C(=O)N[C@@H](Cc1ccc(O)cc1)C(=O)N[C@@H](CCCCN)C(=O)N[C@@H](C)C(=O)N[C@H](C(=O)N[C@@H](CCCNC(=N)N)C(=O)N[C@@H](CCCNC(=N)N)C(=O)N[C@@H](CCCCN)C(=O)O)[C@@H](C)CC [CATH-3] (H-RVKRFWPLVPVAINTVAAGINLYKAIRRK-OH) | 10 to 20 | 10 to 20 | 20 (≈ 67 µg/mL) | 10 (≈ 33.5 µg/mL) | – | –
CC[C@H](C)[C@H](NC(=O)[C@H](CCCCN)NC(=O)[C@H](CCC(=O)O)NC(=O)CNC(=O)CNC(=O)[C@H](CCCCN)NC(=O)[C@H](CCCNC(=N)N)NC(=O)[C@H](CC(C)C)NC(=O)[C@H](CC(C)C)NC(=O)CN)C(=O)NCC(=O)N[C@@H](CCC(=O)O)C(=O)N[C@@H](CCCCN)C(=O)N[C@@H](CC(C)C)C(=O)N[C@@H](CCCCN)C(=O)N[C@@H](CCCCN)C(=O)N[C@H](C(=O)NCC(=O)N[C@@H](CCC(N)=O)C(=O)N[C@@H](CCCCN)C(=O)N[C@H](C(=O)N[C@@H](CCCCN)C(=O)N[C@@H](CC(N)=O)C(=O)N[C@@H](Cc1ccccc1)C(=O)N[C@@H](Cc1ccccc1)C(=O)N[C@@H](CCC(N)=O)C(=O)N[C@@H](CCCCN)C(=O)N[C@@H](CC(C)C)C(=O)N[C@H](C(=O)N1CCC[C@H]1C(=O)N[C@@H](CCC(N)=O)C(=O)N1CCC[C@H]1C(=O)N[C@@H](CCC(=O)O)C(=O)N[C@@H](CCC(N)=O)C(=O)O)C(C)C)[C@@H](C)CC)[C@@H](C)CC [CRAMP] (H-GLLRKGGEKIGEKLKKIGQKIKNFFQKLVPQPEQ-OH) | > 40 | > 40 | > 40 | > 40 | 40 | 40
CC[C@H](C)[C@H](NC(=O)[C@H](CCCNC(=N)N)NC(=O)[C@@H]1CCCN1C(=O)[C@@H]1CCCN1C(=O)[C@H](CC(C)C)NC(=O)[C@H](CCCNC(=N)N)NC(=O)[C@@H]1CCCN1C(=O)[C@@H]1CCCN1C(=O)[C@H](Cc1ccccc1)NC(=O)[C@H](Cc1ccccc1)NC(=O)[C@@H]1CCCN1C(=O)[C@@H]1CCCN1C(=O)[C@@H]1CCCN1C(=O)[C@H](CCCNC(=N)N)NC(=O)[C@@H]1CCCN1C(=O)[C@H](CCCNC(=N)N)NC(=O)[C@@H]1CCCN1C(=O)[C@H](CC(C)C)NC(=O)[C@H](Cc1ccc(O)cc1)NC(=O)[C@@H]1CCCN1C(=O)[C@@H]1CCCN1C(=O)[C@H](CCCNC(=N)N)NC(=O)[C@@H]1CCCN1C(=O)[C@H](CCCNC(=N)N)NC(=O)[C@H](CCCNC(=N)N)NC(=O)[C@@H](N)CCCNC(=N)N)C(=O)N1CCC[C@H]1C(=O)N1CCC[C@H]1C(=O)NCC(=O)N[C@@H](Cc1ccccc1)C(=O)N1CCC[C@H]1C(=O)N1CCC[C@H]1C(=O)N[C@@H](CCCNC(=N)N)C(=O)N[C@@H](Cc1ccccc1)C(=O)N1CCC[C@H]1C(=O)N1CCC[C@H]1C(=O)N[C@@H](CCCNC(=N)N)C(=O)N[C@@H](Cc1ccccc1)C(=O)N1CCC[C@H]1C(=O)O [PR-39] (H-RRRPRPPYLPRPRPPPFFPPRLPPRIPPGFPPRFPPRFP-OH) | > 40 | > 40 | > 40 | > 40 | – | –
